The record followed here is BindingDB's records for doi:10.7270/Q2TX3CTT (Broad Institute, 2010).

SMILES strings stand for the structures. A value given as a limit tells only on which side of the number the result lay.

The target of the test is Glycogen synthase kinase-3 beta (Homo sapiens, UniProt P49841). As to the kind of experiment: GSK3beta kinase inhibitor potency, dose response, biochemical, luminescence, cell-free homogeneous, retest (AID 434954).
Chain of Glycogen synthase kinase-3 beta (P49841 whole entry): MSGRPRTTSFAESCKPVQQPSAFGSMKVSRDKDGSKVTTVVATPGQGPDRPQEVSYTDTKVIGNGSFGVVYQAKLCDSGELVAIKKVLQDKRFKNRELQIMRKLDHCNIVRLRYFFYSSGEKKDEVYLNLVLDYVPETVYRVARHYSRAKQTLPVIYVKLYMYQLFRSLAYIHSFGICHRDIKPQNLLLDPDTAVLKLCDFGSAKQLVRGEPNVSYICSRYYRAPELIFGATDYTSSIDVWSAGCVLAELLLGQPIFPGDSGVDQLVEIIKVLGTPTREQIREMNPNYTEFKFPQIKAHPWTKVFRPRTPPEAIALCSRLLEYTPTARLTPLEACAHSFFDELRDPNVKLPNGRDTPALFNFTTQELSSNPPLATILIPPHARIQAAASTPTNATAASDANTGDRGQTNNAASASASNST
`O=S(=O)(c1ccc(Br)cc1)N1CCN(c2cc(-c3ccccc3)nc3ncnn23)CC1` [7-[4-(4-bromophenyl)sulfonyl-1-piperazinyl]-5-phenyl-[1,2,4]triazolo[1,5-a]pyrimidine] showed an EC50 greater than 300 µM.

Regarding `CC(=O)N1CCc2c(sc(NC(=O)C3COc4ccccc4O3)c2C(N)=O)C1` (stereo not drawn) [2-(2,3-dihydro-1,4-benzodioxin-3-ylcarbonylamino)-6-ethanoyl-5,7-dihydro-4H-thieno[2,3-c]pyridine-3-carboxamide], the EC50 came to 8.32 µM.

Take `CCN(CC)C(=O)COc1cc(C)cc2oc(=O)cc(-c3ccccc3)c12` [N,N-diethyl-2-(7-methyl-2-oxo-4-phenylchromen-5-yl)oxyacetamide]: the EC50 was greater than 300 µM.

With `O=C(Nc1cccc2c1C(=O)NC2=O)c1ccc(-n2c(O)ccc2O)cc1` [N-[1,3-bis(oxidanylidene)isoindol-4-yl]-4-[2,5-bis(oxidanylidene)pyrrolidin-1-yl]benzamide], the EC50 came out at 77.1 µM.

As for `O=C1N=c2cc(Cl)ccc2=C1NNc1ccc(C(=O)O)cc1` [MLS000759696], the EC50 stood at 19.1 µM.

In the case of `CC1=Nc2nnnn2C(c2sccc2C)C1C(N)=O` (stereo not drawn) [MLS000528936], the EC50 is greater than 300 µM.

Consider `Nc1nonc1-n1nnc(C(=O)NN=Cc2ccc(OCc3ccccc3)cc2)c1CN1CCCCC1` [MLS001075115], for which the EC50 worked out at 8.87 µM.

Turning to `Cc1cc(C)c(C#N)c(SCC(=O)c2ccc(Cl)cc2Cl)n1` [2-[2-(2,4-dichlorophenyl)-2-oxidanylidene-ethyl]sulfanyl-4,6-dimethyl-pyridine-3-carbonitrile], the EC50 was greater than 300 µM.

Consider `Nc1nc(NCc2ccco2)nc(Nc2ccccc2)c1[N+](=O)[O-]` [N-Furan-2-ylmethyl-5-nitro-N'-phenyl-pyrimidine-2,4,6-triamine], for which the EC50 was greater than 300 µM.

`Cc1ccc(CNS(=O)(=O)c2c(C)[nH]c(=O)[nH]c2=O)cc1` [MLS001200136]: the EC50 is greater than 300 µM.

Compound `CC(=O)Nc1ccc(S(=O)(=O)N(Cc2cccnc2)Cc2cc3ccccc3nc2O)cc1` [N-[4-[(2-oxidanylidene-1H-quinolin-3-yl)methyl-(pyridin-3-ylmethyl)sulfamoyl]phenyl]ethanamide] registered an EC50 greater than 300 µM.

For `CC1(C)CC(=O)C=C(Nc2cc(-c3ccccc3)n[nH]2)C1`, the EC50 amounted to 12.9 µM.

`NC(=O)C1CCN(c2nc3c(S(=O)(=O)c4ccccc4)nnn3c3ccccc23)CC1` [SMR000629006]: the EC50 was greater than 300 µM.

Consider `O=C1CCCC2=Nc3ncnn3C(c3cccs3)C12` (stereo not drawn) [9-thiophen-2-yl-5,6,7,9-tetrahydro-1H-[1,2,4]triazolo[5,1-b]quinazolin-8-one], for which the EC50 is greater than 300 µM.

The compound `COc1ccc2c(CC(=O)Nc3ncc(C)s3)coc2c1` [2-(6-methoxy-1-benzofuran-3-yl)-N-(5-methyl-1,3-thiazol-2-yl)ethanamide] returned an EC50 greater than 300 µM.

Take `Cc1c(Cl)cccc1Nc1ccccc1C(=O)O`: the EC50 is greater than 300 µM.

In the case of `Cc1cc(NC(=O)COc2cccnc2[N+](=O)[O-])no1` [N-(5-methyl-1,2-oxazol-3-yl)-2-(2-nitropyridin-3-yl)oxyacetamide], the EC50 is greater than 300 µM.

In turn, `O=C(COc1ccc(Cl)cc1)Nc1ncc([N+](=O)[O-])s1` registered an EC50 of 26.3 µM.

As for `COc1ccc2nc(C)cc(Nc3ccc(N4CCN(C)CC4)cc3)c2c1`, the EC50 was greater than 300 µM.

Consider `CCC(=O)Nc1nn(CC(C)C)c2nc3ccc(C)cc3cc12` [N-[6-methyl-1-(2-methylpropyl)pyrazolo[3,4-b]quinolin-3-yl]propanamide], for which the EC50 is greater than 300 µM.

Turning to `COCCOC(=O)C1C(C)=Nc2ncnn2C1c1ccccc1` (stereo not drawn), the EC50 is greater than 300 µM.

`CN1C(=Cc2ccc(F)cc2)C(=O)N=C1N` [(5Z)-2-azanyl-5-[(4-fluorophenyl)methylidene]-1-methyl-imidazol-4-one]: the half-maximal effective concentration (EC50) was greater than 300 µM.

Regarding `Cc1ccc(S(=O)(=O)CC(=O)c2cc3cccc(C)c3oc2=O)cc1` [8-methyl-3-[2-(4-methylphenyl)sulfonyl-1-oxoethyl]-1-benzopyran-2-one], the EC50 was greater than 300 µM.

`Clc1ccccc1CSc1nnc(-c2ccncc2)o1` [2-{[(2-chlorophenyl)methyl]sulfanyl}-5-(pyridin-4-yl)-1,3,4-oxadiazole] had an EC50 of 4.85 µM.

Compound `O=C(CN1C(=O)CCC1=O)Nc1cccc2c1C(=O)NC2=O` [MLS000703473] displayed an EC50 of 2.36 µM.

As to `COC(=O)c1nnn(-c2nonc2N)c1CSc1ccccn1` [1-(4-amino-1,2,5-oxadiazol-3-yl)-5-[(2-pyridinylthio)methyl]-4-triazolecarboxylic acid methyl ester], the EC50 worked out at 21.1 µM.

On to `COc1ccccc1Nc1nc(NCc2ccco2)nc(N)c1[N+](=O)[O-]` [SMR000436038], for which the EC50 was greater than 300 µM.

For the compound `CCOC(=O)/C(C#N)=C/c1cn(CCC(=O)O)nc1-c1cccc(Cl)c1` [3-[3-(3-chlorophenyl)-4-[(E)-2-cyano-3-ethoxy-3-oxidanylidene-prop-1-enyl]pyrazol-1-yl]propanoic acid], the EC50 was greater than 300 µM.

Turning to `CCCn1nc(NC(=O)c2cccs2)c2cc3cccc(C)c3nc21`, the EC50 is greater than 300 µM.

`COc1ccc(/C=C(/NC(=O)c2ccccc2)C(=O)NN=Cc2ccncc2)c(OC)c1` [N-[(E)-1-(2,4-dimethoxyphenyl)-3-oxo-3-[2-(pyridin-4-ylmethylidene)hydrazinyl]prop-1-en-2-yl]benzamide] had an EC50 greater than 300 µM.

The compound `CC[n+]1c(/C=C/N(C)c2ccccc2)oc2ccc(Cl)cc21` [SMR000184374] yielded an EC50 greater than 300 µM.

`CCc1ccc(NC(=O)C(NS(=O)(=O)c2cccc3nsnc23)c2ccccc2)cc1` (stereo not drawn) [2-(2,1,3-benzothiadiazol-4-ylsulfonylamino)-N-(4-ethylphenyl)-2-phenyl-ethanamide] yielded an EC50 greater than 300 µM.

Regarding `CCN(CC)Cc1c(C(=O)N/N=C/c2ccncc2)nnn1-c1nonc1N`, the midpoint of the response, the EC50, lay at 0.177 µM.

In the case of `Cc1cccc(Nc2nc(N)c([N+](=O)[O-])c(NCCO)n2)c1` [2-(6-Amino-5-nitro-2-m-tolylamino-pyrimidin-4-ylamino)-ethanol], it took 5.91 µM to reach a half-maximal effect (EC50).

`COc1ccc(NC(=O)Nc2ccccn2)cc1OC` [N-(3,4-dimethoxyphenyl)-N'-2-pyridinylurea] returned an EC50 greater than 300 µM.

Consider `CN1CCN(c2ccc([N+](=O)[O-])cc2Cl)CC1` [SMR000283168], for which the EC50 was greater than 300 µM.

Turning to `CN(C)CCCNc1ccc(-c2cc(Nc3cccc(Cl)c3)ncn2)cn1` [SMR000463569], the EC50 worked out at 12.2 µM.

Compound `COCCn1c(SCC(=O)Nc2ccccc2OC)nc2ccccc21` [SMR000377677] showed an EC50 greater than 300 µM.

`N#CCCn1cc(C(=O)O)c(-c2cccc([N+](=O)[O-])c2)n1` [SMR000372597]: the EC50 is greater than 300 µM.

`COc1ccc(C(=O)c2coc3ccc(O)c(CN(C)C)c23)cc1` [MLS000115878] came in with an EC50 greater than 300 µM.

`COCC/N=C1\Sc2nc3c(C)cccc3cc2CN1Cc1ccco1` [SMR000122349] gave an EC50 greater than 300 µM.

Regarding `Cc1cc(C)cc(NC(=O)NCC2CCN(Cc3cc(C)ccc3C)CC2)c1` [1-(3,5-dimethylphenyl)-3-[[1-[(2,5-dimethylphenyl)methyl]-4-piperidinyl]methyl]urea], the EC50 was greater than 300 µM.

In the case of `CCOc1ccc2c(c1)-c1c(ssc1=S)C(C)(C)N2` [SMR000116364], the EC50 is greater than 300 µM.

As for `NS(=O)(=O)c1ccc(N=Nc2cnc(O)c(O)c2)cc1` [4-[(5,6-dioxo-3-pyridinyl)hydrazo]benzenesulfonamide], the EC50 was greater than 300 µM.

`COc1ccc2nc(NC(=O)CSc3nc4cccnc4n3C)sc2c1` [MLS000072990] displayed an EC50 of 113 µM.

For the compound `CCCOC(=O)c1ccc(O)cc1` [SMR000112070], the EC50 was greater than 300 µM.

As for `O=C(COc1ccccc1[N+](=O)[O-])NN=Cc1cccs1` [SMR000185881], the EC50 is greater than 300 µM.

`O=C(NCC(c1ccco1)N1CCN(c2ccc(F)cc2)CC1)c1cccs1` (stereo not drawn) [SMR000808277] gave an EC50 greater than 300 µM.

The compound `O=C(O)CNCC1COc2ccccc2O1` (stereo not drawn) [MLS000068078] came in with a 50% effective concentration (EC50) greater than 300 µM.

In the case of `Fc1ccccc1Nc1nc(-c2ccncc2)nc2ccccc12` [N-(2-fluorophenyl)-2-pyridin-4-yl-quinazolin-4-amine], the EC50 was greater than 300 µM.

In turn, `COc1ccc2cc(C(N)=O)c(=NNC(=O)c3ccco3)oc2c1` [SMR000236446] showed an EC50 greater than 300 µM.

For the compound `Cc1ccc2c(c1)C1CN(C)CCC1N2C(=O)Nc1cccc(Cl)c1` (stereo not drawn) [MLS000565326], the EC50 was greater than 300 µM.

The compound `COc1ccc(CNC(=O)CN(Cc2ccc(OC)cc2)C(=O)CCC(=O)Nc2ccccn2)cc1` [SMR000600506] showed a concentration for a half-maximal effect (EC50) of 52.5 µM.

For the compound `Nc1nc(Nc2ccccc2)sc1C(=O)c1ccccc1` [(4-azanyl-2-phenylazanyl-1,3-thiazol-5-yl)-phenyl-methanone], the EC50 came to 0.171 µM.

In turn, `O=c1[nH]c(N=NCc2ccccc2)nc2ccccc12` [MLS000571403] returned an EC50 greater than 300 µM.

Consider `CNc1nc(N)c([N+](=O)[O-])c(NCC2CCCO2)n1` (stereo not drawn) [SMR000436173], for which the EC50 was found to be 49.7 µM.

Compound `CCC(OCC(O)CN1CCCCC1)c1ccccc1` (stereo not drawn) had an EC50 greater than 300 µM.

Compound `COC(=O)c1ccc(NC(C(=O)OC)C(C)C)c([N+](=O)[O-])c1` (stereo not drawn) [methyl 4-[(1-methoxy-3-methyl-1-oxidanylidene-butan-2-yl)amino]-3-nitro-benzoate] had an EC50 greater than 300 µM.

In the case of `CSc1nc(C)cc(-n2ccc(=O)[nH]c2=O)n1` [1-[6-methyl-2-(methylthio)-4-pyrimidinyl]pyrimidine-2,4-dione], the EC50 is 25.8 µM.

Take `Cc1cc(NC(=O)CSc2ccc3nnc(-c4cccs4)n3n2)no1`: the EC50 is greater than 300 µM.

In the case of `Cc1ccc(C2c3c([nH]c(=S)[nH]c3=O)N=C3CC(C)(C)CC(=O)C32)cc1` (stereo not drawn) [8,8-dimethyl-5-(4-methylphenyl)-2-sulfanylidene-5,7,9,10-tetrahydro-1H-pyrimido[4,5-b]quinoline-4,6-dione], the EC50 was greater than 300 µM.

Regarding `Cc1cc(NC(=O)CCC(=O)N(c2cccnc2)C(C(=O)NC2CCCC2)c2ccccc2F)no1` (stereo not drawn) [N'-[2-(cyclopentylamino)-1-(2-fluorophenyl)-2-oxoethyl]-N-(5-methyl-1,2-oxazol-3-yl)-N'-pyridin-3-ylbutanediamide], the EC50 was greater than 300 µM.

On to `CCn1c(/C=C/N(C)c2ccccc2)[n+](CC)c2cc(Cl)ccc21` [SMR000173749], for which the EC50 is greater than 300 µM.

As a reminder, the EC50 is the concentration at which the effect is half-maximal.
